The record followed here is PubChem BioAssay AID1996.

≈ marks a conversion by molar mass, not a printed value. Some results are limits rather than exact numbers.

For the data set the following is noted: buffer; pH 7.4; 200.0 µM.
`Cc1ccc(CC(=O)O/N=C(\N)c2ccccn2)cc1`: the solubility (kinetic) was 0.0275 mg/mL (≈ 102 µM). Regarding `O=[N+]([O-])c1ccc(Cl)c(S(=O)(=O)Nc2cccc(S(=O)(=O)NC3=NCCC3)c2)c1`, the kinetic solubility was greater than 0.0688 mg/mL. The same measure for `O=S(=O)(c1cccs1)N1CCN(c2ccccc2)CC1`: 0.0014 mg/mL (≈ 4.54 µM). `Cc1ccc(C)c(NC(=O)C2CCN(C(=O)c3cccs3)CC2)c1` showed a kinetic solubility greater than 0.0514 mg/mL. In the case of `COc1ccc(NC(=O)O/N=C/c2ccncc2)cc1` it was greater than 0.0407 mg/mL; in that of `CS(=O)(=O)c1ccc(Cl)c(NC(=O)CCN2C(=O)NC3(CCCC3)C2=O)c1`, greater than 0.0621 mg/mL. In the case of `CN(C)CCCn1c(=S)[nH]c2sc3c(c2c1=O)CCCC3` it was greater than 0.0485 mg/mL; in that of `Cc1cccc(NC(=S)Nc2ccccn2)c1`, 0.0016 mg/mL (≈ 6.58 µM). The same measure for `COC(CNc1ncnc2sc(-c3ccccc3)cc12)OC`: 0.0359 mg/mL (≈ 114 µM). Compound `Cc1ccc(S(=O)(=O)NCC(=O)OCC(=O)N2CC(C)OC(C)C2)cc1` (stereo unspecified) displayed a kinetic solubility greater than 0.0577 mg/mL. The same measure for `CCn1c(=O)ccc2cc([N+](=O)[O-])ccc21`: greater than 0.0327 mg/mL. The same measure for `Cn1c(N)nc2nc(CCc3ccccc3)c(=O)[nH]c2c1=O`: 0.0099 mg/mL (≈ 33.3 µM); for `Cl.Nc1cccc2c3c(oc12)CCCC3`: 0.0074 mg/mL. `COc1ccc(NC(=O)CN2CCCCC2)cc1S(=O)(=O)N1CCCCC1.O=C(O)C(=O)O` had a solubility (kinetic) greater than 0.0728 mg/mL. `O=C(Cc1ccc(Br)cc1)NCCN1CCOCC1` returned a solubility (kinetic) greater than 0.0491 mg/mL. Compound `Cc1nc(NC(=O)COC(=O)C2CC2C)c(Cl)cc1Cl` (stereo unspecified) displayed a solubility (kinetic) greater than 0.0476 mg/mL. In the case of `O=S(=O)(c1ccc(Cl)cc1)N1CCCCCC1` it was 0.0114 mg/mL (≈ 41.6 µM); in that of `C=CCc1c(C)nc(SCc2ccccc2)[nH]c1=O`, 0.0104 mg/mL (≈ 38.2 µM); in that of `NC(=O)c1cc(-c2csc(-c3cccnc3)n2)ccc1O`, 0.0052 mg/mL (≈ 17.5 µM). In the case of `Cc1cc(C)c(C#N)c(SCc2ccccc2F)n1` it was less than 0.0003 mg/mL; in that of `Nc1nccnc1C(=O)OCC(=O)C12CC3CC(CC(C3)C1)C2`, 0.0029 mg/mL (≈ 9.2 µM); in that of `Cc1ccccc1NC(=O)Nc1ccccn1`, 0.0007 mg/mL (≈ 3.08 µM).

Regarding `Cc1ccc(N2C(=O)C3CCCN3C2=S)cc1C` (stereo unspecified), the kinetic solubility was greater than 0.0391 mg/mL. In the case of `CCOc1cccc2cc(C(=O)NCc3ccc(F)cc3)c(=N)oc12` it was 0.0007 mg/mL (≈ 2.06 µM); in that of `CCN(CC)c1cc(Cl)c2nonc2c1N`, 0.0085 mg/mL (≈ 35.3 µM).

On to `Cc1nc2ccc([N+](=O)[O-])cc2c(=O)n1Cc1ccccc1Br`, for which the kinetic solubility came to 0.002 mg/mL (≈ 5.34 µM). `O=C(COC(=O)Cc1ccc(Cl)cc1)NC1CCCC1` yielded a solubility (kinetic) greater than 0.0444 mg/mL.

Compound `C=C(c1ccccc1C)[n+]1ccccc1` returned a kinetic solubility of 0.0221 mg/mL. On to `Clc1cccc(CN2CCN(c3ncccn3)CC2)c1Cl`, for which the kinetic solubility was 0.0111 mg/mL (≈ 34.3 µM). For the compound `CC(=O)Nc1cccc(C(=O)NCCc2ccco2)c1`, the kinetic solubility was greater than 0.0408 mg/mL.

Consider `CCOC(=O)N1CCN(c2cc(NCCO)c([N+](=O)[O-])c3nonc23)CC1`, for which the kinetic solubility is 0.0059 mg/mL (≈ 15.5 µM).

Compound `C#CCn1c(CCNC(=O)c2ccco2)nc2ccccc21` gave a kinetic solubility greater than 0.044 mg/mL. In the case of `Cc1cc2c(Nc3ccccc3)ncnc2s1.Cl` it was 0.013 mg/mL.

In the case of `CC(Sc1cccc[n+]1[O-])C(=O)NC1CCCCC1C` (stereo unspecified), the solubility (kinetic) is greater than 0.0442 mg/mL.

For `Cc1ccc(S(=O)(=O)NC(=O)c2ccccc2C)cc1`, the kinetic solubility was greater than 0.0434 mg/mL.

For the compound `CC(C)(C)Nc1c(-c2cccs2)nc2ccccn12`, the solubility (kinetic) came to 0.0334 mg/mL (≈ 123 µM). In the case of `O=C(COc1ccccc1[N+](=O)[O-])NC1CC1` it was 0.0291 mg/mL (≈ 123 µM); in that of `O=C(NC1=NCCS1)c1ccccc1F`, 0.0334 mg/mL (≈ 149 µM); in that of `COc1ccc(NC(=O)c2sc3nc(C)cc(C)c3c2N)c(OC)c1`, less than 0.0003 mg/mL. The same measure for `CN(C)/C=C1\SC(=S)N(c2ccc(F)cc2)C1=O`: 0.0126 mg/mL (≈ 44.6 µM); for `COc1ccccc1NC(=O)/C(C#N)=C/c1cccnc1`: 0.0413 mg/mL (≈ 148 µM); for `Nc1cccc(S(=O)(=O)Nc2ccccc2)c1`: greater than 0.0372 mg/mL. The same measure for `O=c1c2ccccc2nc(Cc2ccccc2)n1-c1cccc(O)c1`: 0.006 mg/mL (≈ 18.3 µM); for `Cc1ccc(C)n1-c1ccc(-c2ccnc(N)n2)cc1`: 0.0225 mg/mL (≈ 85.1 µM). On to `Cc1noc(NS(=O)(=O)c2ccc(NC(=O)COc3ccc(C#N)cc3)cc2)c1C`, for which the solubility (kinetic) is greater than 0.064 mg/mL. The same measure for `CCC(=O)N1CCN=C1SCc1c(F)cccc1Cl`: 0.0126 mg/mL (≈ 41.9 µM); for `Cc1cnc(C(=O)OCC(=O)C23CC4CC(CC(C4)C2)C3)cn1`: greater than 0.0472 mg/mL.

`NNC(=O)Cn1c(-c2ccccc2)cc2ccccc21` yielded a solubility (kinetic) greater than 0.0398 mg/mL. In the case of `COC(=O)CN1C(=O)N/C(=C/c2cc(OC)c(OC)cc2C)C1=O` it was 0.0469 mg/mL (≈ 140 µM).

The compound `Cc1nc2ccc(S(=O)(=O)N3CCCCC3)cc2s1` had a solubility (kinetic) of 0.0214 mg/mL (≈ 72.2 µM). In the case of `O=C(Nc1nc2ccc([N+](=O)[O-])cc2s1)c1ccncc1` it was 0.0019 mg/mL (≈ 6.33 µM); in that of `Cn1cnc2c(=O)sc3ccccc3c21`, greater than 0.0324 mg/mL; in that of `CCC(=O)Nc1ccc(CCC(=O)N2CCCC2)cc1`, 0.04 mg/mL (≈ 146 µM). In the case of `Cc1cccnc1Oc1ncccc1N` it was greater than 0.0302 mg/mL. In the case of `COc1ccccc1C(=O)c1nc2ccccc2n1C` it was 0.0197 mg/mL (≈ 74 µM); in that of `COc1ccccc1NC(=O)NC(=O)c1ccccc1`, 0.0004 mg/mL (≈ 1.48 µM); in that of `O=C(CN1CCN(Cc2ccc3c(c2)OCO3)CC1)Nc1ccc2[nH]c(=O)[nH]c2c1`, greater than 0.0614 mg/mL. In turn, `CCN1CCN(c2nc(Nc3ccc(OC)cc3)nc(N)c2[N+](=O)[O-])CC1` returned a kinetic solubility of 0.0496 mg/mL (≈ 133 µM).

Consider `O=C(Cc1ccc(Cl)c(Cl)c1)N1CCOCC1`, for which the kinetic solubility was greater than 0.0411 mg/mL.

In turn, `Cc1cccc(N2CCN(C(=O)Cc3ccccc3[N+](=O)[O-])CC2)c1C` yielded a kinetic solubility of 0.0033 mg/mL (≈ 9.34 µM). The same measure for `O=[N+]([O-])c1cnc2ccc3ccccc3c2c1`: 0.0031 mg/mL (≈ 13.8 µM); for `O=C(NC1CCCc2ccccc21)c1ccc2c(c1)OCO2` (stereo unspecified): 0.0116 mg/mL (≈ 39.3 µM); for `CN=C(Nc1cccnc1)c1ccccc1`: greater than 0.0317 mg/mL.

Compound `O=C(CCNS(=O)(=O)c1ccccc1C(F)(F)F)NCCCN1CCOCC1` yielded a kinetic solubility greater than 0.0635 mg/mL. The compound `Cc1ccc(/C=C(\C#N)C(=O)NCc2ccco2)o1` had a solubility (kinetic) of 0.009 mg/mL (≈ 35.1 µM). In the case of `O=S(=O)(Nc1nc2ccccc2s1)c1ccc(Cl)nc1` it was greater than 0.0489 mg/mL; in that of `CCOC(=O)Cn1c2ccc(C)cc2c2nc(C)sc21`, 0.0383 mg/mL (≈ 133 µM). In the case of `CC1(C)NC(=O)N(CCCCOc2ccc(Cl)cc2C=O)C1=O` it was 0.0476 mg/mL (≈ 140 µM); in that of `Cc1noc(C(=O)Nc2ccc(F)cc2F)c1Cl`, 0.0132 mg/mL (≈ 48.4 µM); in that of `O=C(NC1CCCCC1)C(=S)NCc1ccccc1`, 0.0014 mg/mL (≈ 5.07 µM). In the case of `FC(F)(F)c1nc2ccccc2[nH]1` it was greater than 0.0279 mg/mL; in that of `Cc1cccc(C)c1NC(=O)c1c(O)c2ccccc2[nH]c1=O`, 0.0005 mg/mL (≈ 1.62 µM); in that of `Clc1cccc(Sc2ccc(-c3ccccn3)s2)c1`, less than 0.0007 mg/mL.

Consider `O=C1CCC([N+](=O)[O-])C(c2ccccc2Br)N1` (stereo unspecified), for which the kinetic solubility is greater than 0.0449 mg/mL. The same measure for `COc1ccc(N2CC(NC(=O)N3CCc4ccccc43)CC2=O)cc1OC` (stereo unspecified): greater than 0.0572 mg/mL; for `N=C(N)c1ccccc1`: greater than 0.018 mg/mL.
